Tests used:
circulating LH = experiment: suppression of circulating LH concentrations, duration of bioactivity; format: in vivo; conditions: dose of 50 micrograms per rat; for duration of bioactivity (LH suppression): testing as in Example 1
[1] = examination of injected rats for tolerance and gelling at the point of injection; format: in vivo, rat; conditions: after injection in the anti-ovulation test
Protocol: (§1) The betide is assayed in vivo to determine its effectiveness to prevent ovulation in female rats. Inthis test, a specified number of mature female Sprague-Dawley rats, e.g. five to ten, each having a body weight from 225 to 250 grams, are injected with a specified microgram dosage of the betide in bacteriostatic water at about noon on the day of proestrus. Proestrus is the […]. A separate female rat group is used as a control to which the peptide is not administered. Each of the control female rats ovulates on the evening of proestrus; the number of the rats treated which ovulate is recorded.

[2] = hydrophilicity by RP-HPLC retention; format: physicochemical; conditions: for hydrophilicity compared to Acyline: RP-HPLC
[3] = tested on: ovulation in mature female Sprague-Dawley rats; experiment: standard in vivo rat anti-ovulation test; conditions: injected in bacteriostatic water at about noon on the day of proestrus
Protocol: as §1

Compound | circulating LH concentrations relative to control levels (circulating LH; for 48 hours or more) | duration of bioactivity (LH suppression) (circulating LH) [h] | gelling at the point of injection [1] | tolerance in treated rats [1] | hydrophilicity compared to Acyline [2] | RP-HPLC retention (hydrophilicity) ([2]; gradient 40% to 75% Buffer B over 30 minutes, Buffer A TEAP pH 7.3, Buffer B 60% CH3CN and 40% Buffer A) [min] | anti-ovulatory activity: rats ovulating out of rats treated ([3]; dosage 2.5 μg) | anti-ovulatory activity: rats ovulating out of rats treated ([3]; dosage 1 μg) | anti-ovulatory activity: rats ovulating out of rats treated ([3]; dosage 5 μg)
CC(=O)Nc1ccc(C[C@H](NC(=O)[C@H](CO)NC(=O)C(NC(=O)c2cccnc2)NC(=O)[C@@H](Cc2ccc(Cl)cc2)NC(=O)[C@@H](Cc2ccc3ccccc3c2)NC(C)=O)C(=O)N[C@H](Cc2ccc(NC(C)=O)cc2)C(=O)N[C@@H](CC(C)C)C(=O)N[C@@H](CCCCNC(C)C)C(=O)N2CCC[C@H]2C(=O)N[C@H](C)C(N)=O)cc1 (single isomer, unassigned) [Betide No. 1, Ac-D-2Nal-(4Cl)D-Phe-γ-(3-pyridyl)amidoGly-Ser-Aph(acetyl)-D-Aph(acetyl)-Leu-Lys(isopropyl)-Pro-D-Ala-NH2] | less than 25 % of control levels | ≥ 48 | no significant gelling | very well tolerated | more hydrophilic | 23.5 | – | – | –
CC(=O)Nc1ccc(C[C@H](NC(=O)[C@H](CO)NC(=O)C(NC(=O)[C@@H](Cc2ccc(Cl)cc2)NC(=O)[C@@H](Cc2ccc3ccccc3c2)NC(C)=O)N(C)C(=O)c2cccnc2)C(=O)N[C@H](Cc2ccc(NC(C)=O)cc2)C(=O)N[C@@H](CC(C)C)C(=O)N[C@@H](CCCCNC(C)C)C(=O)N2CCC[C@H]2C(=O)N[C@H](C)C(N)=O)cc1 (single isomer, unassigned) [Betide No. 1B second isomer, Ac-β-D-2Nal-D-Cpa-γ-(3-pyridyl)methylD/L-amidoGly-Ser-Aph(acetyl)-D-Aph(acetyl)-Leu-Lys(isopropyl)-Pro-D-Ala-NH2] | – | – | – | – | more hydrophilic than Acyline | – | 3 out of 8 | – | –
CC(=O)Nc1ccc(C[C@H](NC(=O)[C@H](CO)NC(=O)[C@@H](Cc2cccnc2)NC(=O)[C@@H](Cc2ccc(Cl)cc2)NC(=O)C(NC(C)=O)NC(=O)c2ccc3ccccc3c2)C(=O)N[C@H](Cc2ccc(NC(C)=O)cc2)C(=O)N[C@@H](CC(C)C)C(=O)N[C@@H](CCCCNC(C)C)C(=O)N2CCC[C@H]2C(=O)N[C@H](C)C(N)=O)cc1 (single isomer, unassigned) [Betide No. 3, Ac-γ-(2-naphthoyl)amidoGly-4Cl-D-Phe-D-3Pal-Ser-Aph(acetyl)-D-Aph(acetyl)-Leu-Lys(isopropyl)-Pro-D-Ala-NH2] | – | ≥ 48 | – | – | – | – | 0/8 | 2 out of 7 | –
Ac-2Nal-4Cl-D-Phe-D-3Pal-Ser-Aph(acetyl)-D-Aph(acetyl)-Leu-Lys(isopropyl)- Pro-D/L-Agl(methyl,For)-NH2 [Betide No. 8C] | – | – | – | – | more hydrophilic than Acyline | – | 0/8 | 1 out of 8 | –
Ac-D-2Nal-(4Cl)D-Phe-D-3Pal-Ser-Aph(acetyl)-D-Aph(acetyl)-Leu-D/L-Agl(acetyl-β-Ala)-Pro-D-Ala-NH2 [Betide No. 7] | – | – | – | – | more hydrophilic than Acyline | – | 3 out of 9 | – | 0 out of 11
Ac-D-2Nal-(4Cl)D-Phe-D-3Pal-Ser-Aph(acetyl)-D-Aph(acetyl)-Leu-Lys(isopropyl)-Pro-D/L-Agl-NH2 [Betide No. 8A] | – | – | – | – | more hydrophilic than Acyline | – | 0 out of 8 | – | –

From patent US5807983A, “GNRH antagonist betides” (The Salk Institute for Biological Studies, priority 1996, dated 1998)
